Measurements reported in the supplement of paper PMC11451515.

Experiments:
Details in all cases: 48 h
[1] = test system: NOMO1; test: AUC of viability dose-response curve (% viability x log10 dose units); higher = less sensitive
Method in brief: (§1)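 Area under the curve was integrated by trapezoidal rule from a log-logistic fit of normalised viability, with curves exceeding full viability scaled and quality-control failures removed. The fit had four parameters over log10 doses. Viability came from CellTiter-Glo One luminescence, normalised per plate to DMSO and cell-free wells, after leukemia cells adapted to each medium (500 or 1000 cells/well, 1536-well plates) were exposed to library compounds in DMSO for 48 h at 37°C. The 11 threefold doses ran from 47 μM to 0.79 nM.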

[2] = test system: SEM cells; test: as above
Method in brief: as §1

[3] = test system: P12-Ichikawa; test: as above
Method in brief: as §1

[4] = test system: SEM cells; test: cell viability relative to DMSO control; higher = less cytotoxic
Method in brief: (§2)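 Viability is expressed as a percentage of DMSO wells within each plate, and cell-free wells serve as background. Seeding densities in the 1536-well plates (5 μl) were 500 cells/well for NOMO1 or SEM leukemia cells and 1000 cells/well for P12-Ichikawa. Each line was adapted for at least four passages in each medium. Library compounds in DMSO were pin-dosed at 47 μM to 0.79 nM (11 points, threefold), and CellTiter-Glo One luminescence was read after 48 h at 37°C.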

[5] = test system: P12-Ichikawa; test: as above
Method in brief: as §2

[6] = test system: NOMO1; test: as above
Method in brief: as §2

CCCN1CCO[C@@H]2c3cc(O)ccc3OC[C@H]21
AUC of viability dose-response curve
Details	[1]	[2]	[3]
HPLM + 10% dialyzed FBS	451	406	448
RPMI 5 mM glucose + 10% FBS	456	424	446
RPMI 5 mM glucose + 10% dialyzed FBS	456	433	441

cell viability [%], HPLM + 10% dialyzed FBS
Details	[4]	[5]
0.000781 µM	120	125
0.00234 µM	123	123
0.00702 µM	135	128
0.0211 µM	112	120
0.0632 µM	122	120
0.19 µM	118	118
0.569 µM	105	113
1.71 µM	103	114
5.12 µM	68.4	114
15.4 µM	99.7	101
46.1 µM	48.1	12.1

COc1ccc2c(c1)CN(C)CC2c1ccc(Cl)c(Cl)c1 (configuration not stated)
AUC of viability dose-response curve
Details	[1]	[2]	[3]
HPLM + 10% dialyzed FBS	430	465	475
RPMI 5 mM glucose + 10% FBS	463	467	471
RPMI 5 mM glucose + 10% dialyzed FBS	437	443	461

cell viability [%]
Details	HPLM + 10% dialyzed FBS	RPMI 5 mM glucose + 10% FBS	RPMI 5 mM glucose + 10% dialyzed FBS
[4], 0.000781 µM	78	95.5	89.2
[4], 0.00234 µM	104	112	109
[4], 0.00702 µM	121	140	133
[4], 0.0211 µM	102	108	104
[4], 0.0632 µM	122	136	138
[4], 0.19 µM	109	136	168
[4], 0.569 µM	133	131	157
[4], 1.71 µM	117	123	150
[4], 5.12 µM	126	128	143
[4], 15.4 µM	117	125	141
[4], 46.1 µM	58.7	74.5	109
[5], 0.000781 µM	128	–	–
[5], 0.00234 µM	121	–	–
[5], 0.00702 µM	125	–	–
[5], 0.0211 µM	125	–	–
[5], 0.0632 µM	134	–	–
[5], 0.19 µM	133	–	–
[5], 0.569 µM	125	–	–
[5], 1.71 µM	123	–	–
[5], 5.12 µM	133	–	–
[5], 15.4 µM	131	–	–
[5], 46.1 µM	116	–	–

C/C=C/C(=O)N(CC)c1ccccc1C
AUC of viability dose-response curve
Details	[1]	[2]	[3]
HPLM + 10% dialyzed FBS	393	434	458
RPMI 5 mM glucose + 10% FBS	431	465	470
RPMI 5 mM glucose + 10% dialyzed FBS	399	428	432

CCN[C@H]1C[C@H](C)[S+](=O)([O-])c2sc([S+](N)(=O)[O-])cc21
AUC of viability dose-response curve
Details	HPLM + 10% dialyzed FBS	RPMI 5 mM glucose + 10% FBS	RPMI 5 mM glucose + 10% dialyzed FBS
[1]	434	452	415
[3]	460	440	471

[4], HPLM + 10% dialyzed FBS
Details	cell viability [%]
0.000781 µM	137
0.00234 µM	100
0.00702 µM	120
0.0211 µM	126
0.0632 µM	36.4
0.19 µM	129
0.569 µM	135
1.71 µM	126
5.12 µM	52.8
15.4 µM	131
46.1 µM	118

CC#CCn1c(N2CCC[C@@H](N)C2)nc2c1c(=O)n(Cc1nc(C)c3ccccc3n1)c(=O)n2C
AUC of viability dose-response curve
Details	[1]	[2]	[3]
HPLM + 10% dialyzed FBS	471	475	473
RPMI 5 mM glucose + 10% FBS	443	460	450
RPMI 5 mM glucose + 10% dialyzed FBS	457	433	449

cell viability [%]
Details	[4]	[5]	[6]
HPLM + 10% dialyzed FBS, 0.000781 µM	107	104	97.8
HPLM + 10% dialyzed FBS, 0.00234 µM	114	104	97.2
HPLM + 10% dialyzed FBS, 0.00702 µM	115	99.3	100
HPLM + 10% dialyzed FBS, 0.0211 µM	42.6	89.2	88.2
HPLM + 10% dialyzed FBS, 0.0632 µM	115	108	108
HPLM + 10% dialyzed FBS, 0.19 µM	104	109	110
HPLM + 10% dialyzed FBS, 0.569 µM	112	104	104
HPLM + 10% dialyzed FBS, 1.71 µM	109	97.8	87.8
HPLM + 10% dialyzed FBS, 5.12 µM	111	103	98.3
HPLM + 10% dialyzed FBS, 15.4 µM	116	99.7	114
HPLM + 10% dialyzed FBS, 46.1 µM	83.3	88.5	75.1
RPMI 5 mM glucose + 10% FBS, 0.000781 µM	105	94.9	97.6
RPMI 5 mM glucose + 10% FBS, 0.00234 µM	97.9	102	93.7
RPMI 5 mM glucose + 10% FBS, 0.00702 µM	105	102	101
RPMI 5 mM glucose + 10% FBS, 0.0211 µM	40.3	85.9	90.3
RPMI 5 mM glucose + 10% FBS, 0.0632 µM	114	96.8	89
RPMI 5 mM glucose + 10% FBS, 0.19 µM	102	94.6	96.3
RPMI 5 mM glucose + 10% FBS, 0.569 µM	112	96.1	102
RPMI 5 mM glucose + 10% FBS, 1.71 µM	108	93.9	89
RPMI 5 mM glucose + 10% FBS, 5.12 µM	109	91.2	88.1
RPMI 5 mM glucose + 10% FBS, 15.4 µM	102	87.4	91.1
RPMI 5 mM glucose + 10% FBS, 46.1 µM	88.7	94.9	82
RPMI 5 mM glucose + 10% dialyzed FBS, 0.000781 µM	96.8	104	104
RPMI 5 mM glucose + 10% dialyzed FBS, 0.00234 µM	94.4	102	96.6
RPMI 5 mM glucose + 10% dialyzed FBS, 0.00702 µM	88.7	98.4	112
RPMI 5 mM glucose + 10% dialyzed FBS, 0.0211 µM	45.6	83.6	87.7
RPMI 5 mM glucose + 10% dialyzed FBS, 0.0632 µM	108	100	101
RPMI 5 mM glucose + 10% dialyzed FBS, 0.19 µM	96	109	105
RPMI 5 mM glucose + 10% dialyzed FBS, 0.569 µM	108	101	100
RPMI 5 mM glucose + 10% dialyzed FBS, 1.71 µM	93.9	95.9	96.3
RPMI 5 mM glucose + 10% dialyzed FBS, 5.12 µM	93.5	97.6	93.8
RPMI 5 mM glucose + 10% dialyzed FBS, 15.4 µM	99.1	85.1	97.7
RPMI 5 mM glucose + 10% dialyzed FBS, 46.1 µM	75.2	85.9	91.7

O=C(N[C@H](CO)[C@H](O)c1ccc([N+](=O)[O-])cc1)C(Cl)Cl
AUC of viability dose-response curve
Details	[1]	[2]	[3]
HPLM + 10% dialyzed FBS	477	474	471
RPMI 5 mM glucose + 10% FBS	467	475	466
RPMI 5 mM glucose + 10% dialyzed FBS	467	475	462

[4], HPLM + 10% dialyzed FBS
Details	cell viability [%]
0.000781 µM	115
0.00234 µM	119
0.00702 µM	125
0.0211 µM	121
0.0632 µM	126
0.19 µM	125
0.569 µM	128
1.71 µM	132
5.12 µM	128
15.4 µM	118
46.1 µM	113

Cc1cc(Nc2cc(N3CCN(C)CC3)nc(Sc3ccc(NC(=O)C4CC4)cc3)n2)[nH]n1
AUC of viability dose-response curve
Details	[1]	[2]	[3]
HPLM + 10% dialyzed FBS	389	304	298
RPMI 5 mM glucose + 10% FBS	390	286	302
RPMI 5 mM glucose + 10% dialyzed FBS	376	286	315
